Here are results for 5 molecules from patent US20260374750A1, “LIGANDS SPECIFICALLY TARGETING VESICULAR GLUTAMATE TRANSPORTERS FOR SUPER-RESOLUTION IMAGING” (SORBONNE UNIVERSITÉ, priority 2021, published 2026).

Data set [1] concerns VGLUTs (GLU vesicular transport). The experiment in a line: Vesicular glutamate reuptake test ([3H]-glutamate, synaptic vesicles). Type of data set: biochemical, rat. The conditions noted are these: for potency in words (EC50): based on EC50; for EC50: vesicular glutamate transport. The method, then: The EC50 was also determined for several of the compounds of the invention.
The vesicular glutamate reuptake was tested as previously described (Kish and Ueda, 1989; Naito and Ueda, 1985; Pietrancosta et al., 2010) with minor modifications. Aliquots of synaptic vesicles […] (obtained by differential centrifugation of rat cortex) were diluted in a solution containing 4 mM HEPES-KOH, pH 7.4 and 0.32M sucrose. The tested compounds were dissolved in 1% ethanol, 1% DMSO (pH was adjusted to 7.4 with 5% KOH) to initial concentrations comprised between 2 mM and 200 μM. The compounds were then diluted to desired final concentrations in a solution containing 10 mM HEPES-KOH, pH 7.4, 0.32 M sucrose, 4 mM KCl, 4 mM MgSO4 (named TPU). The tested compounds were pre-incubated in a solution containing 3 mM ATP-Mg, 1 mM L-aspartic acid, 100 μM glutamate and 0.4 mM […] and 0.4 μM [3H]-Glutamate (1.547 TBq/mmol). After 4 min at 37 °C, the reuptake reaction was initiated by the addition of rat synaptic vesicles. This mixture was incubated for 10 min at 37 °C before adding ice-cold TPU (3.5 mL) and rapidly filtering it through a membrane filter ([…], Millipore MF reference HAWP02500) using a vacuum collector. The filters were washed five times with 3.5 mL of cold TPU and placed in scintillation vials with a scintillation cocktail (optiphase hisafe 3, reference 1200-437, Perkin Elmer). The radioactivity related to the filters was measured in a Beckman LS 6500 scintillation spectrophotometer. The values obtained in the absence of ATP-Mg or in the presence of Carbonyl [COMPOUND LEFT OUT] 3-chlorophenylhydrazone (CCCP, 50 μM reference Sigma C2759) were used to determine the non-specific activity.

Data set [2] in a line: Fluorimetry: absorption and emission spectra, Stokes shift, molar absorption coefficient, quantum efficiency. The conditions noted are these: for Stokes shift: λmaxem-λmaxabs; for ε (molar absorption coefficient) / φ (quantum efficiency): coumarin-343 as reference. Type of data set: physicochemical. On the set-up: λmax abs / λmax em: unit not given here; key to Stokes shift: λmaxem − λmaxabs (emission peak minus absorption peak). The method, then:
The physicochemical properties of each ligand were determined thanks to fluorimetry. For each compound, a dilution range was performed and measurements were taken at 1 mM, 316 μM, 100 μM, 31.6 μM, 10 μM, 3.16 μM and 1μ. In 96-well fluorescence microplates, the absorbance and emission spectra of the ligands could be determined at each concentration thanks to a plate spectrophotometer (Tecan). The absorbance spectra are first measured for each compound so as to determine the maximum absorption wavelength (λmaxabs). The fluorescence, or emission, spectra are then determined after excitation of each compound at its λmaxabs, thus allowing obtaining the maximum fluorescence wavelength (λmaxem). Different parameters specific to each of the compounds were determined: • The Stokes shift: it corresponds to the difference between the peak of the absorption spectrum and the peak of the fluorescence spectrum, i.e.: λmaxem-λmaxabs • The molar absorption coefficient (ε): it reflects the capacity of the solutions to absorb light and is determined by the formula ε=A/(C.I)(A: optical density at λmaxabs, C: concentration of the compound, I: constant corresponding to the length of the optical path). ε is expressed in L·cm^−1·mol^−1. • The quantum efficiency (Φ): it represents the ratio of the number of photons emitted to the number of photons absorbed by the compound, i.e. the “probability” for an excited molecule to emit a photon. It takes a value between 0 and 1, 0 corresponding to a non-fluorescent molecule and 1 meaning that there is no de-excitation. Its value is determined thanks to the following formula where Abs: optical density at λmaxabs, AUC: area under the curve of the fluorescence spectrum, n: refractive index of the medium. In this formula, “m” refers to the studied molecule, and “r” to a reference fluorophore.
[formula] • of the fluorescence spectrum, n: refractive index of the medium). In this formula, “m” refers to the studied molecule, and “r” to a reference fluorophore.
The determination of ε and Φ requires the use of a reference fluorescent molecule for which these two parameters are known. Because of its coumarin-type fluorescent pattern, therefore close to those of the studied compounds, coumarin-343 (ε=44300 L·cm−1·mol−1 and Φ=0.63 in ethanol) was used as reference fluorophore. These two parameters were recalculated in the compound dilution medium (DMSO), and were used as a reference in the calculation of ε and Φ for each ligand.
In order to study the effect of a pH variation on the fluorescence intensity of the compounds, the measurements of the absorption and emission spectra were carried out in three different dilution media: • DMSO: pure dimethyl sulfoxide • Phosphate buffer pH 7.2 (0.2 M) • Phosphate buffer pH 5.5 (0.2 M)
FIG. 1 illustrates the absorption and emission spectra of the compound referenced L8, a carboxylic acid from the quinoline family. This is an example of the study carried out on each of the studied fluorophores. The graphic values determined thanks to these spectra are the λmaxabs, the λmaxem and the Stokes shift in each medium. […] The most diluted wells are preferred to see the emission peak of the compound.
The results which are obtained graphically thanks to the excitation and emission spectra and by calculation via the properties of coumarin 343 are grouped in Table 2 below.

Setting [3] is: pH 7 (phosphate buffer pH 7.2, 0.2 M).
The mark [4] stands for this setting: phosphate buffer pH 5.5 (0.2 M).

The term EC50 denotes the concentration at which the effect is half-maximal.

As for `Nc1ccc(-c2ccc(-c3cn(-c4ccc5oc(=O)c(C(=O)O)cc5c4)nn3)cc2)cc1` [LSP17-1115, 6-(4-(4′-amino-[1,1′-biphenyl]-4-yl)-1H-1,2,3-triazol-1-yl)-2-oxo-2H-chromene-3-carboxylic Acid], the “% inhibition of GLU vesicular transport at 20 μM” value (shortened to “% inhibition”) in data set [1] (coumarin-derived compounds) turned out to be 6%. Also, in data set [2] (DMSO), the λmax abs was determined as 325, the λmax em amounted to 410, the Stokes shift stood at 85 and the “ε (molar absorption coefficient)” value worked out at 36944.8 L/cm/mol. The “φ (quantum efficiency)” value in data set [2] (DMSO) was determined as 0.06. For the same molecule, in data set [2] (pH 5.5), the Stokes shift turned out to be 43. Besides, in data set [2] (setting [3]), the λmax abs came to 365 and the λmax em was 415. Besides, the Stokes shift in data set [2] (pH 7) turned out to be 50. Also, in data set [2] (setting [4]), the λmax abs is on record as 365 and the λmax em is listed as 408.

As for `Nc1ccc(-c2ccc(C#Cc3cc4cc(C(=O)O)c(=O)oc4cc3O)cc2)cc1` [LSP17-1173, 6-((4′-amino-[1,1′-biphenyl]-4-yl)ethynyl)-7-hydroxy-2-oxo-2H-chromene-3-carboxylic Acid], in data set [1] (coumarin-derived compounds), the “% inhibition” value was 100% and a half-maximal response (EC50) required 500 nM. Besides, the “potency in words (EC50)” value in data set [1] was “effective at a very low concentration”. In data set [2] (DMSO), the λmax em came to 460, the Stokes shift amounted to 125, the “ε (molar absorption coefficient)” value was 51857.8 L/cm/mol and the “φ (quantum efficiency)” value came to 0.06. Besides, the Stokes shift in data set [2] (pH 5.5) is listed as 47. The λmax abs in data set [2] (setting [3]) is listed as 360. Besides, in data set [2] (pH 7), the Stokes shift came out at 80. In addition, in data set [2] (setting [4]), the λmax abs is listed as 365 and the λmax em stood at 412.

On to `O=C(O)c1cc(C(=O)O)c2cc(-c3ccc(-c4ccccc4)cc3)ccc2n1` [LSP13-1152-YL152 (L8), 6-(Biphenyl-4-yl) quinoline-2,4-dicarboxylic Acid], for which, in data set [1] (quinoline-derived compounds), the “% inhibition” value came to 49% and a half-maximal response (EC50) required 22000 nM. Also, in data set [2] (DMSO), the λmax abs is 355, the λmax em is recorded as 415, the Stokes shift is 60 and the “ε (molar absorption coefficient)” value was found to be 35280.3 L/cm/mol. Moreover, the “φ (quantum efficiency)” value in data set [2] (DMSO) stood at 0.32. Besides, in data set [2] (FIG. 1), the “fluorescence intensity of emission spectra” value was “very significant fluorescence intensities”. Moreover, the Stokes shift in data set [2] (pH 5.5) worked out at 80. The λmax abs in data set [2] (setting [3]) is reported as 330. Also, the Stokes shift in data set [2] (pH 7) is recorded as 80. In data set [2] (setting [4]), the λmax abs turned out to be 330 and the λmax em amounted to 410.

For the molecule `CCOC(=O)c1cc2cc(C#Cc3ccc(-c4ccc(N)cc4)cc3)c(O)cc2oc1=O` [F11, Ethyl-6-((4′-amino-[1,1′-biphenyl]-4-yl)ethynyl)-7-hydroxy-2-oxo-2H-chromene-3-carboxylate], the λmax em in data set [2] (DMSO) is on record as 500-620; in data set [2] (setting [3]) it was 425; in data set [2] (setting [4]), 410. Moreover, the Stokes shift in data set [2] (DMSO) was found to be 160; in data set [2] (pH 5.5), 45; in data set [2] (pH 7), 60. Also, the “ε (molar absorption coefficient)” value in data set [2] (DMSO) turned out to be 62227.6 L/cm/mol. For the same molecule, the “φ (quantum efficiency)” value in data set [2] (DMSO) is listed as 0.18. Further, the λmax abs in data set [2] (setting [3]) and in data set [2] (setting [4]) was 365 each time.

In the case of `COc1cc2oc(=O)c(C(=O)O)cc2cc1-n1cc(-c2ccc(-c3ccc(N)cc3)cc2)nn1` [LSP17-1124, 6-(4-(4′-amino-[1,1′-biphenyl]-4-yl)-1H-1,2,3-triazol-1-yl)-7-methoxy-2-oxo-2H-chromene-3-carboxylic Acid], in data set [1] (coumarin-derived compounds), the “% inhibition” value worked out at 100% and a half-maximal response (EC50) required 400 nM. For the same molecule, the “potency in words (EC50)” value in data set [1] is given as “effective at a very low concentration”. In data set [2] (DMSO), the λmax abs amounted to 330, the λmax em is given as 405-511, the Stokes shift was determined as 75 and the “ε (molar absorption coefficient)” value was 21908.6 L/cm/mol. In data set [2] (DMSO), the “φ (quantum efficiency)” value turned out to be 0.14. In data set [2] (pH 5.5), the Stokes shift turned out to be 45. In addition, in data set [2] (setting [3]), the λmax abs is 365 and the λmax em is 416. Besides, the Stokes shift in data set [2] (pH 7) was determined as 51. Moreover, in data set [2] (setting [4]), the λmax abs worked out at 335 and the λmax em is listed as 380.
